Assay results published in patent publication US20260227397A1, “METHODS AND SYSTEMS OF PROFILING WITH BIOLOGICAL COMPUTING CELLS” (XENO CELL INNOVATIONS S.R.O., priority 2023, published 2026).

T1: alpha-factor, P01149
T1 chain: WHWLQLKPGQPMY


Experiments:
[1] = system: HaCaT (HCT, EpCAM+) cells; assay: Cell-specific apoptosis rate in mixed HaCaT/Jurkat cell cultures (biocytometry readout); assay type: cell-based
Experimental: The presently described biocytometry was evaluated for measuring cell-specific apoptosis in mixed cell cultures. Despite the growing trend toward studying apoptosis in complex biological systems such as organoids and mixed cell cultures, conventional methods such as Caspase-based assays and MTT tests still yield limited sensitivity and quantify only aggregate apoptosis levels. To assess cell-specific apoptosis, mixed cultures of HaCaT (HCT, EpCAM+) and Jurkat (JUR, EpCAM−) cells at varied ratios (1:0 to 1:8) were utilized. Cells were cultured at a density of 40,000 cells/well in RPMI medium supplemented with 10% FBS and either subjected to 1 mM DTT treatment or left untreated. Following a 2.5-hour incubation at 37° C. in a 5% CO2 atmosphere, both total and apoptotic HaCaT cell counts were established using BIOS(EpCAM) and BIOS (EpCAM+PS), adhering to the biocytometry protocol. A noticeable reduction in total EpCAM+ cell count was evident in induced cell cultures, alongside an increase in the number of apoptotic EpCAM+ cells, aligning with the anticipated apoptotic changes (FIG. 12A). Apoptotic rates were calculated by normalizing BIOS(EpCAM+PS) counts to total cell counts from BIOS(EpCAM). […]

alpha-factor, P01149 = target: T1, alpha-factor, P01149

Molecule	increase in apoptotic rates among EpCAM+ cells ([1]; 1 mM DTT vs untreated controls)	apoptotic rate among EpCAM+ cells ([1]; 1 mM DTT, 2.5-hour incubation at 37° C., 1.7% baseline in untreated controls)	degradation of alpha-factor; activation threshold of the biosensors (alpha-factor, P01149)
O[C@@H](CS)[C@@H](O)CS [DTT]	7.2 fold	12.2%	–
BAR1 protease of BAR1 computing units (protein) LTNDGTGHLEFLLQHEEEMYYATTLDIGTPSQSLTVLFDTGSADFWVMDSSNPFCLPNSNTSSYSNATYNGEEVKPSIDCRSMSTYNEHRSSTYQYLENGRFYITYADGTFADGSWGTETVSINGIDIPNIQFGVAKYATTPVSGVLGIGFPRRESVKGYEGAPNEYYPNFPQILKSEKIIDVVAYSLFLNSPDSGTGSIVFGAIDESKFSGDLFTFPMVNEYPTIVDAPATLAMTIQGLGAQNKSSCEHETFTTTKYPVLLDSGTSLLNAPKVIADKMASFVNASYSEEEGIYILDCPVSVGDVEYNFDFGDLQISVPLSSLILSPETEGSYCGFAVQPTNDSMVLGDVFLSSAYVVFDLDNYKISLAQANWNASEVSKKLVNIQTDGSISGAKIATAEPWSTNEPFTVTSDIYSSTGCKSRPFLQSSTASSLIAETNVQSRNCSTKMPGTRSTTVLSKPTQNSAMHQSTGAVTQTSNETKLELSSTMANSGSVSLPTSNSIDKEFEHSKSQTTSDPSVAEHSTFNQTFVHETKYRPTHKTVITETVTKYSTVLINVCKPTY	–	–	effectively degraded alpha-factor, raising the activation threshold of the biosensors
